Consider 21 compounds from patent US12325709B2, “Cannabinoid derivatives” (CANOPY GROWTH CORPORATION, priority 2019, dated 2025).

What is called IC50 is the point on the concentration scale where inhibition reaches its midpoint. Low values mean inhibition by little substance, high ones a need for much substance.

One assay addresses T1, human CB2 receptor (Homo sapiens, UniProt P34972).
T1 construct: host or cells: CHO-K1 (Chinese hamster ovary) cells, stably transfected; membranes prepared in house
As to the kind of experiment: CB2 radioligand competitive binding assay ([3H]CP 55,940 displacement). The following applies: for Selectivity CB2: fold difference in binding between CB1 and CB2, shown in column of receptor with higher affinity, 1.00 in both = about the same affinity. As for the experimental part:
Compounds of the present disclosure were tested for CB1 receptor binding affinity and for CB2 receptor binding affinity. As used herein, “binding affinity” is represented by the IC50 value, which was experimentally determined as described herein. The lower the IC50 value the higher the binding affinity.
The membranes were prepared from CHO-K1 (Chinese hamster ovary) cells stably transfected with the human CB2 receptor (Cat. #ES-111-C; Perkin Elmer, Boston, MA). The cells were grown adherently and maintained in Ham's F12 medium containing 10% fetal bovine serum (FBS), penicillin, streptomycin and geneticin (G418) at 37° C. in a humid atmosphere of 5% CO2 following the manufacturer's instructions.
For membrane preparation the cells were washed with PBS and scraped off the plates in cold homogenization buffer (25 mM HEPES (pH 7.4), 2 mM EDTA) containing protease inhibitor cocktail (Sigma Cat. #P8340). The cell suspension was homogenized with a Pro-PK-01200D Polytron Homogenizer (Pro Scientific) and then centrifuged for 30 min at 120,000×g. The supernatant was discarded and the pellet was re-suspended in the homogenization buffer and stored at −80° C. until the time of use.
In this experiment, 3H radiolabeled CP 55,940, i.e. [3H]CP 55,940 (Perkin Elmer, Boston, MA), was used as a radioligand for the CB2 receptor to determine the binding affinity of compounds for the CB2 receptor (Scheme 3; above).
The competition binding experiments (single dose and dose-response) were performed by incubating 0.6 nM of [3H]CP55,940 (specific activity 101 Ci/mmol, Perkin Elmer) and different concentrations of compounds disclosed herein with membranes prepared as above from CHO-K1 cells expressing human CB2 receptor (1 μg of protein/well), 50 mM Tris-HCl (pH 7.4), 5 mM MgCl2, 1 mM CaCl2, and 2 mg/mL BSA.
For the dose-response experiments the test compounds were sequentially diluted to provide the desired concentration range for the IC50 determination. In each case the compounds were pre-incubated with the membrane for 20 min, before adding the radioligand.
After incubation with the radioligand for 60 min at 37° C., the incubation was terminated by rapid filtration of assay mixture through MultiScreen®HTS^+ 96-well filter plates (Millipore, Cat. #MSFCNXB), pre-soaked for 60 min with 50 mM Tris-HCl (pH 7.4) containing 0.33% polyethylenimine (PEI). The nonspecific binding (NSB) was determined in the presence of 10 μM unlabelled CP55,940. After drying the filter plate at 50° C. for at least 60 min, the filter-bound radioactivity was determined by scintillation spectrometry using the 1450 MicroBeta Plate Counter (Perkin Elmer, Boston, MA).

For the next assay, the target named is T2, human CB1 receptor (Homo sapiens, UniProt P21554).
T2 construct: host or cells: CHO-K1 (Chinese hamster ovary) cells, stably transfected; membranes prepared in house
As to the kind of experiment: CB1 radioligand competitive binding assay ([3H]CP 55,940 displacement). To be noted: for Selectivity CB1: fold difference in binding between CB1 and CB2, shown in column of receptor with higher affinity, 1.00 in both = about the same affinity.

Each structure is given as a SMILES string.

T2 sequence (P21554 whole entry): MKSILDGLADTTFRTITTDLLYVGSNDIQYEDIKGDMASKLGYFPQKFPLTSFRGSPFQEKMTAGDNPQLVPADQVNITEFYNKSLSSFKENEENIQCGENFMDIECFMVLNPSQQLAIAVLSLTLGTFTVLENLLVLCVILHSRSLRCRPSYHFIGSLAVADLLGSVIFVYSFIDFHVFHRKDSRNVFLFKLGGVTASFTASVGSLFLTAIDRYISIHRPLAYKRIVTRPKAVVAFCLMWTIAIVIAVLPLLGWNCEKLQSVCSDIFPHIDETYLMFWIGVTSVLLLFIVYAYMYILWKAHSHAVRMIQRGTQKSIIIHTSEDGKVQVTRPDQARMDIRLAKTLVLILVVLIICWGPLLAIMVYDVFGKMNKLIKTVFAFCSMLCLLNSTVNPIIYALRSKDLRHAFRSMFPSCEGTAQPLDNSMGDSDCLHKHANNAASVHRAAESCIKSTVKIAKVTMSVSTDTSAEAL
T1 sequence (P34972 whole entry): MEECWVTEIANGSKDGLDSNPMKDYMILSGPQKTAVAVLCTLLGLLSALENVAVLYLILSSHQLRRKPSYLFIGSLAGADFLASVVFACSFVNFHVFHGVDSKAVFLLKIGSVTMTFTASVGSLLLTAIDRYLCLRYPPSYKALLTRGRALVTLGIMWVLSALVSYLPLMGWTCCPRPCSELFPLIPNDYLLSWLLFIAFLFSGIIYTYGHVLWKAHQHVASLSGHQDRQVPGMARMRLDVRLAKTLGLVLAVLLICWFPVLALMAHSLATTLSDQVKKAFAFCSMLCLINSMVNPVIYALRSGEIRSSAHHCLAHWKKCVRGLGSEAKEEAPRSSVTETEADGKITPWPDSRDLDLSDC

Regarding `CCCCCc1cc(O)c(C2C=C(C)CCC2)c(O)c1C(=O)NCc1cccnc1` (stereo not shown) [Compound 15c, 2,6-dihydroxy-5′-methyl-4-pentyl-N-(pyridin-3-ylmethyl)-1′,2′,3′,4′-tetrahydro-[1,1′-biphenyl]-3-carboxamide], on human CB2 receptor, the IC50 is less than 100 nM and the “Selectivity CB2” value worked out at 23.17 fold. The compound further gave an IC50 at human CB1 receptor of 1000 to 4990 nM.
As for `CCCCCc1cc(O)c(C2C=C(C)CCC2)c(O)c1C(=O)N1CCCC1` (stereo not shown) [Compound 41c, (2,6-dihydroxy-5′-methyl-4-pentyl-1′,2′,3′,4′-tetrahydro-[1,1′-biphenyl]-3-yl)(pyrrolidin-1-yl)methanone], at human CB2 receptor, the IC50 lay within 1000 to 4990 nM and the “Selectivity CB2” value is 13.31 fold. The compound also gave an IC50 at human CB1 receptor greater than 5000 nM.
With `CCCCCc1cc(O)c(C2C=C(C)CCC2)c(O)c1C(=O)N1CCn2cnnc2C1` (stereo not shown) [Compound 34c, (5,6-dihydro-[1,2,4]triazolo[4,3-a]pyrazin-7(8H)-yl)(2,6-dihydroxy-5′-methyl-4-pentyl-1′,2′,3′,4′-tetrahydro-[1,1′-biphenyl]-3-yl)methanone], at human CB2 receptor, the IC50 was greater than 5000 nM and the “Selectivity CB2” value amounted to 1.00 fold. Besides, on human CB1 receptor, the IC50 was greater than 5000 nM and the “Selectivity CB1” value is given as 1.00 fold.
Regarding `CCCCCc1cc(O)c(C2C=C(C)CCC2)c(O)c1C(=O)NCc1ccccc1Br` (stereo not shown) [Compound 57c, N-(2-bromobenzyl)-2,6-dihydroxy-5′-methyl-4-pentyl-1′,2′,3′,4′-tetrahydro-[1,1′-biphenyl]-3-carboxamide], the IC50 was less than 100 nM at human CB2 receptor and 1000 to 4990 nM at human CB1 receptor. For the same compound, the “Selectivity CB2” value at human CB2 receptor is recorded as 21.67 fold.
On the same counts, the results for `C=C(C)[C@@H]1CCC(C)=C[C@H]1c1c(O)cc(CCC)c(C(=O)NC)c1O` [Compound 96d, 2,6-dihydroxy-N,5′-dimethyl-2′-(prop-1-en-2-yl)-4-propyl-1′,2′,3′,4′-tetrahydro-[1,1′-biphenyl]-3-carboxamide] are greater than 5000 nM, greater than 5000 nM and 2.59 fold.
With `C=C(C)[C@@H]1CCC(C)=C[C@H]1c1c(O)cc(CCCCC)c(C(=O)NC2CC2)c1O` [Compound 6d, N-cyclopropyl-2,6-dihydroxy-5′-methyl-4-pentyl-2′-(prop-1-en-2-yl)-1′,2′,3′,4′-tetrahydro-[1,1′-biphenyl]-3-carboxamide], the concentration for half-maximal inhibition (IC50) on human CB2 receptor is 1000 to 4990 nM; at human CB1 receptor, greater than 5000 nM. Also, the “Selectivity CB2” value on human CB2 receptor turned out to be 9.09 fold.
As to `C=C(C)[C@@H]1CCC(C)=C[C@H]1c1c(O)cc(CCCCC)c(C(=O)N2CCOCC2)c1O` [Compound 39d, (2,6-dihydroxy-5′-methyl-4-pentyl-2′-(prop-1-en-2-yl)-1′,2′,3′,4′-tetrahydro-[1,1′-biphenyl]-3-yl)(morpholino)methanone], at human CB2 receptor, the IC50 fell in the range of 1000 to 4990 nM and the “Selectivity CB2” value is reported as 3.49 fold. On human CB1 receptor, this compound gave an IC50 greater than 5000 nM.
Turning to `C=CCNC(=O)c1c(CCCCC)cc(O)c(C2C=C(C)CCC2)c1O` (stereo not shown) [Compound 25c, N-allyl-2,6-dihydroxy-5′-methyl-4-pentyl-1′,2′,3′,4′-tetrahydro-[1,1′-biphenyl]-3-carboxamide], on human CB2 receptor, the IC50 fell in the range of 100 to 990 nM and the “Selectivity CB2” value is on record as 16.53 fold. At human CB1 receptor, the IC50 lay in the range of 1000 to 4990 nM.
Regarding `CCCCCc1cc(O)c(C2C=C(C)CCC2)c(O)c1C(N)=O` (stereo not shown) [Compound 58c, 2,6-dihydroxy-5′-methyl-4-pentyl-1′,2′,3′,4′-tetrahydro-[1,1′-biphenyl]-3-carboxamide], on human CB2 receptor, the IC50 is 1000 to 4990 nM and the “Selectivity CB2” value is listed as 11.83 fold. On human CB1 receptor, this compound returned an IC50 greater than 5000 nM.
Regarding `C=C(C)C1CCC(C)=CC1c1c(O)cc(CCCCC)c(C(=O)NCc2ccccc2)c1O` (stereo not shown) [Compound 14d, N-benzyl-2,6-dihydroxy-5′-methyl-4-pentyl-2′-(prop-1-en-2-yl)-1′,2′,3′,4′-tetrahydro-[1,1′-biphenyl]-3-carboxamide], on human CB2 receptor, the IC50 fell in the range of 1000 to 4990 nM and the “Selectivity CB2” value was found to be 13.50 fold. At human CB1 receptor, the IC50 is greater than 5000 nM.
For the compound `CCCCCc1cc(O)c(C2C=C(C)CCC2)c(O)c1C(=O)N1CCOCC1` (stereo not shown) [Compound 39c, (2,6-dihydroxy-5′-methyl-4-pentyl-1′,2′,3′,4′-tetrahydro-[1,1′-biphenyl]-3-yl)(morpholino)methanone], at human CB2 receptor, the IC50 was in the range of 1000 to 4990 nM and the “Selectivity CB2” value is reported as 3.20 fold. The compound also displayed an IC50 at human CB1 receptor of 1000 to 4990 nM.
As for `C=C(C)[C@@H]1CCC(C)=C[C@H]1c1c(O)cc(CCCCC)c(C(=O)NCc2cccnc2)c1O` [Compound 15d, 2,6-dihydroxy-5′-methyl-4-pentyl-2′-(prop-1-en-2-yl)-N-(pyridin-3-ylmethyl)-1′,2′,3′,4′-tetrahydro-[1,1′-biphenyl]-3-carboxamide], the IC50 at human CB2 receptor was 100 to 990 nM. Also, on human CB1 receptor, the IC50 was in the range of 100 to 990 nM and the “Selectivity CB1” value stood at 2.48 fold.
As for `CCCCCc1cc(O)c(C2C=C(C)CCC2)c(O)c1C(=O)NC` (stereo not shown) [Compound 1c, 2,6-dihydroxy-N,5′-dimethyl-4-pentyl-1′,2′,3′,4′-tetrahydro-[1,1′-biphenyl]-3-carboxamide], the IC50 on human CB2 receptor was 1000 to 4990 nM; on human CB1 receptor, greater than 5000 nM. The “Selectivity CB2” value at human CB2 receptor was 3.20 fold.
`CCCCCc1cc(O)c(C2C=C(C)CCC2)c(O)c1CN(C)C(=O)OC` (stereo not shown) [Compound 59c, methyl ((2,6-dihydroxy-5′-methyl-4-pentyl-1′,2′,3′,4′-tetrahydro-[1,1′-biphenyl]-3-yl)methyl)(methyl)carbamate]: at human CB2 receptor, the IC50 was less than 100 nM and the “Selectivity CB2” value was found to be 9.26 fold. This compound gave an IC50 at human CB1 receptor of 100 to 990 nM.
For `C=C(C)[C@@H]1CCC(C)=C[C@H]1c1c(O)cc(CCCCC)c(C(=O)NCC)c1O` [Compound 3d, N-ethyl-2,6-dihydroxy-5′-methyl-4-pentyl-2′-(prop-1-en-2-yl)-1′,2′,3′,4′-tetrahydro-[1,1′-biphenyl]-3-carboxamide], in that order: 1000 to 4990 nM, 1.80 fold and 1000 to 4990 nM.
Regarding `CCCCCc1cc(O)c(-c2cccc(C)c2)c(O)c1C(=O)NCc1cccnc1` [Compound 15a, 2,6-dihydroxy-3′-methyl-4-pentyl-N-(pyridin-3-ylmethyl)-[1,1′-biphenyl]-3-carboxamide], at human CB2 receptor, the IC50 is 100 to 990 nM and the “Selectivity CB2” value turned out to be 17.62 fold. Besides, the IC50 at human CB1 receptor is greater than 5000 nM.
On the same counts, the results for `CCCCCc1cc(O)c(C2C=C(C)CCC2)c(O)c1C(=O)N1CCN(S(C)(=O)=O)CC1` (stereo not shown) [Compound 37c, (2,6-dihydroxy-5′-methyl-4-pentyl-1′,2′,3′,4′-tetrahydro-[1,1′-biphenyl]-3-yl)(4-(methylsulfonyl)piperazin-1-yl)methanone] are 100 to 990 nM, 66.67 fold and greater than 5000 nM.
For `CCCCCc1cc(O)c(C2C=C(C)CCC2)c(O)c1C(=O)NCc1ccccc1` (stereo not shown) [Compound 14c, N-benzyl-2,6-dihydroxy-5′-methyl-4-pentyl-1′,2′,3′,4′-tetrahydro-[1,1′-biphenyl]-3-carboxamide], in that order: less than 100 nM, 1300.00 fold and 1000 to 4990 nM.
For `C=C(C)[C@@H]1CCC(C)=C[C@H]1c1c(O)cc(CCCCC)c(C(=O)Nc2ccc(OC)cc2)c1O` [Compound 11d, 2,6-dihydroxy-N-(4-methoxyphenyl)-5′-methyl-4-pentyl-2′-(prop-1-en-2-yl)-1′,2′,3′,4′-tetrahydro-[1,1′-biphenyl]-3-carboxamide], in that order: 100 to 990 nM, 3.11 fold and 1000 to 4990 nM.
Take `CCCCCc1cc(O)c(-c2cccc(C)c2)c(O)c1C(=O)N1CCOCC1` [Compound 39a, (2,6-dihydroxy-3′-methyl-4-pentyl-[1,1′-biphenyl]-3-yl)(morpholino)methanone]: on human CB2 receptor, the IC50 was greater than 5000 nM and the “Selectivity CB2” value worked out at 3.70 fold. For the same compound, the IC50 on human CB1 receptor is greater than 5000 nM.
Take `C=C(C)[C@@H]1CCC(C)=C[C@H]1c1c(O)cc(CCCCC)c(C(=O)NC)c1O` [Compound 1d, 2,6-dihydroxy-N,5′-dimethyl-4-pentyl-2′-(prop-1-en-2-yl)-1′,2′,3′,4′-tetrahydro-[1,1′-biphenyl]-3-carboxamide]: the IC50 on human CB2 receptor lay within 100 to 990 nM; at human CB1 receptor, 1000 to 4990 nM. For the same compound, the “Selectivity CB2” value on human CB2 receptor came to 1.26 fold.
